Results on 25 molecules are retold here after patent US20250186391A1, “ORAL COMPLEMENT FACTOR D INHIBITORS” (BioCryst Pharmaceuticals, Inc., priority 2019, published 2025).

Bounds are passed on as bounds.

The target of this experiment is Factor D (Homo sapiens (Human), UniProt P00746). The experiment is described as follows: Factor D esterolytic assay. It counts as biochemical. Conditions: Z-Lys-SBzl substrate, 100 mM HEPES, 500 mM NaCl, pH 7.5, 10% DMSO; tested a minimum of three times; read-out: Measured Ki (IC50) Value for Compounds: IC50. The procedure: The IC50 value of a compound (i.e., the concentration of the compound that inhibits 50% of the enzymatic activity) was calculated according to the procedure reported in U.S. Pat. No. 6,653,340 B1, e.g., column 74 (incorporated by reference).
Sequence of Factor D (P00746 26-253): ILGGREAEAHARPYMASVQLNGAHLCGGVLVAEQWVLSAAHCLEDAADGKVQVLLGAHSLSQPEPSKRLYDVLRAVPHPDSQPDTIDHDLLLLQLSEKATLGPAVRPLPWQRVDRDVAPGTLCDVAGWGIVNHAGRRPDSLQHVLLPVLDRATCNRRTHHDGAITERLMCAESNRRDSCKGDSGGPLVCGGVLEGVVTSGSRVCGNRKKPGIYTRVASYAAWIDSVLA
Specifically, the compounds were dissolved in a stock solution of DMSO at 10.0 or 100 mM. A portion of this stock solution was added to assay buffer in a final volume of 50 μL. Controls included buffer alone and enzyme solutions to which DMSO was added. Substrate was added to the reaction wells immediately or after incubation at room temperature. The reaction rates were measured spectrophotometrically by the generation of product at 405 nm for 600 sec. Background absorbance at 690 nm was measured and subtracted from the absorbance at 405 nm for each well.
The reaction rate for enzyme alone was compared to the rate of enzyme in the presence of inhibitor and the percent inhibition was calculated as shown below: […]
An established esterolytic assay for the measurement of Factor D activity and inhibition of Factor D activity was used (Kam, C. M.; McRae, B. J.; Harper, J. W.; Niemann, M. A.; Volanakis, J. E.; Powers, J. C. Human complement proteins D, C2, and B Active site mapping with peptide thioester substrates. J Biol. Chem. 1987, 262, 3444-3451). For this assay Z-Lys-SBzl, 1.29 mM (Kim, S.; Narayana, S. V. L; Volanakis, J. E. Mutational analysis of the substrate binding site of human complement Factor D. Biochemistry. 1994, 33, 14393-14399.) was used as the substrate for Factor D ([…]). Hydrolysis of this compound by Factor D liberated a free sulfhydryl group which is then reacted with 5,5′-dithiobis(2nitrobenzoic acid) producing an intense yellow color (Habeeb, A. F. S. A. Reaction of protein sulfhydryl groups with Ellman's Reagent. Methods in Enzymol. 1976, 25, 457-464.). The assays were performed in 96 well microtiter plates and rates of hydrolysis were monitored at 405 nm on a Biotek Synergy H1 plate reader. Hydrolysis rates were reported as change in mOD/min. The assay was conducted in 100 mM HEPES, 500 mM NaCl, pH 7.5 containing 10% DMSO in a final volume of 50 μL per well.
An IC50, a compound concentration which inhibits 50% of the enzymatic activity, was calculated. Compounds in the examples were tested a minimum of three times.
Regarding `CCc1ccc(CC(=O)O)c(OCc2coc3ccc(-c4cccc(CN)c4F)cc23)c1` [Compound 12g, 2-(2-((5-(3-(aminomethyl)-2-fluorophenyl)benzofuran-3-yl)methoxy)-4-ethylphenyl)acetic acid], the IC50 (as a rule, the concentration that inhibits the measured activity by half) is less than 1 µM.
For the molecule `CCOC(=O)Nc1cc(-c2cccc(CN)c2)cc2c(COc3ccccc3CC(=O)O)c(C(=O)O)oc12` [Compound 102c, 5-(3-(aminomethyl)phenyl)-3-((2-(carboxymethyl)phenoxy)methyl)-7-((ethoxycarbonyl)amino)benzofuran-2-carboxylic acid], the IC50 is less than 1 µM.
The figure for `NCc1cc(F)cc(-c2ccc3occ(Cc4cccc(CC(=O)O)c4O)c3c2)c1` [Compound 40d, 2-(3-((5-(3-(aminomethyl)-5-fluorophenyl)benzofuran-3-yl)methyl)-2-hydroxyphenyl)acetic acid] is 1 to 10 µM.
The figure for `COc1ccc(CC(=O)O)c(OCc2c(C)oc3ccc(-c4cccc([C@@H](C)N)c4)cc23)c1` [Compound 242b, (R)-2-(2-((5-(3-(1-aminoethyl)phenyl)-2-methylbenzofuran-3-yl)methoxy)-4-methoxyphenyl)acetic acid] is less than 1 µM; for `CC(C)c1oc2ccc(-c3cccc(CN)c3)cc2c1COc1ccccc1CC(=O)O` [Compound 142e, 2-(2-((5-(3-(aminomethyl)phenyl)-2-isopropylbenzofuran-3-yl)methoxy)phenyl)acetic acid] it is less than 1 µM; for `NCc1cccc(-c2ccc3occ(COc4cc(C(N)=O)ccc4CC(=O)O)c3c2)c1` [Compound 63c, 2-(2-((5-(3-(aminomethyl)phenyl)benzofuran-3-yl)methoxy)-4-carbamoylphenyl)acetic acid] it is less than 1 µM.
The figure for `NCc1cccc(-c2cc(NCC3CCOC3)c3occ(COc4ccccc4CC(=O)O)c3c2)c1` (stereo not shown) [Compound 147d, 2-(2-((5-(3-(aminomethyl)phenyl)-7-(((tetrahydrofuran-3-yl)methyl)amino)benzofuran-3-yl)methoxy)phenyl)acetic acid] is less than 1 µM.
Regarding `COc1ccc(CC(=O)O)c(OCc2coc3c(OC)cc(-c4cccc(CN)c4)cc23)c1` [Compound 251c, 2-(2-((5-(3-(aminomethyl)phenyl)-7-methoxybenzofuran-3-yl)methoxy)-4-methoxyphenyl)acetic acid], the IC50 was less than 1 µM.
The figure for `NCc1cccc(-c2cccc3cc(COc4ccccc4CCC(=O)O)oc23)c1` [Compound 35c, 3-(2-((7-(3-(aminomethyl)phenyl)benzofuran-2-yl)methoxy)phenyl)propanoic acid] is greater than 10 µM; for `NCc1cccc(-c2cccc3oc(COc4ccccc4CC(=O)O)cc23)c1` [Compound 26a, 2-(2-((4-(3-(aminomethyl)phenyl)benzofuran-2-yl)methoxy)phenyl)acetic acid] it is less than 1 µM; for `NCc1cccc(-c2cc(N)c3oc(C(=O)O)c(COc4ccccc4CC(=O)O)c3c2)c1` [Compound 87c, 7-amino-5-(3-(aminomethyl)phenyl)-3-((2-(carboxymethyl)phenoxy)methyl)benzofuran-2-carboxylic acid] it is less than 1 µM.
With `NCc1cccc(-c2cc(F)cc3cc(COc4ccccc4CC(=O)O)oc23)c1` [Compound 31f, 2-(2-((7-(3-(aminomethyl)phenyl)-5-fluorobenzofuran-2-yl)methoxy)phenyl)acetic acid], the IC50 is less than 1 µM.
The figure for `NCc1cccc(-c2cc(OC[C@H]3CCCO3)c3occ(COc4ccccc4CC(=O)O)c3c2)c1` [Compound 76i, (R)-2-(2-((5-(3-(aminomethyl)phenyl)-7-((tetrahydrofuran-2-yl)methoxy)benzofuran-3-yl)methoxy)phenyl)acetic acid] is less than 1 µM; for `COc1ccc(CC(=O)O)c(OCc2c(C(C)=O)oc3ccc(-c4cccc(CN)c4)cc23)c1` [Compound 218c, 2-(2-((2-acetyl-5-(3-(aminomethyl)phenyl)benzofuran-3-yl)methoxy)-4-methoxyphenyl)acetic acid] it is less than 1 µM.
The figure for `NCc1cccc(-c2ccc3occ(COc4c(N)cccc4CC(=O)O)c3c2)c1` [Compound 90h, 2-(3-amino-2-((5-(3-(aminomethyl)phenyl)benzofuran-3-yl)methoxy)phenyl)acetic acid] is less than 1 µM; for `NCc1cccc(-c2cc(Cn3ccnc3)c3occ(COc4ccccc4CC(=O)O)c3c2)c1` [Compound 155e, 2-(2-((7-((1H-imidazol-1-yl)methyl)-5-(3-(aminomethyl)phenyl)benzofuran-3-yl)methoxy)phenyl)acetic acid] it is less than 1 µM; for `Cc1ccc(CC(=O)O)c(OCc2coc3c(OCC4CC4)cc(-c4cccc(CN)c4)cc23)c1` [Compound 161c, 2-(2-((5-(3-(aminomethyl)phenyl)-7-(cyclopropylmethoxy)benzofuran-3-yl)methoxy)-4-methylphenyl)acetic acid] it is less than 1 µM.
As for `COc1ccc(CC(=O)O)c(OCc2c(C(C)C)oc3c(NCC4CC4)cc(-c4cccc(CN)c4)cc23)c1` [Compound 295h, 2-(2-((5-(3-(aminomethyl)phenyl)-7-((cyclopropylmethyl)amino)-2-isopropylbenzofuran-3-yl)methoxy)-4-methoxyphenyl)acetic acid], the IC50 was less than 1 µM.
The figure for `NCc1cccc(-c2cc(NCC3CCCC3)c3occ(COc4ccccc4CC(=O)O)c3c2)c1` [Compound 146d, 2-(2-((5-(3-(aminomethyl)phenyl)-7-((cyclopentylmethyl)amino)benzofuran-3-yl)methoxy)phenyl)acetic acid] is less than 1 µM; for `NCc1cccc(-c2ccc3occ(COc4ccc(F)cc4CC(=O)O)c3c2)c1F` [Compound 45b, 2-(2-((5-(3-(aminomethyl)-2-fluorophenyl)benzofuran-3-yl)methoxy)-5-fluorophenyl)acetic acid] it is less than 1 µM; for `COc1ccc(CC(=O)O)c(OCc2coc3ccc(-c4ccnc(CN)c4F)cc23)c1` [Compound 71d, 2-(2-((5-(2-(aminomethyl)-3-fluoropyridin-4-yl)benzofuran-3-yl)methoxy)-4-methoxyphenyl)acetic acid] it is less than 1 µM.
The figure for `CC(C)n1nc(COc2ccccc2CC(=O)O)c2cc(-c3cccc(CN)c3N)ccc21` [Compound 307c, 2-(2-((5-(2-amino-3-(aminomethyl)phenyl)-1-isopropyl-1H-indazol-3-yl)methoxy)phenyl)acetic acid] is less than 1 µM; for `Cn1nc2ccc(-c3cccc(CN)c3)cc2c1COc1ccccc1CC(=O)O` [Compound 184e, 2-(2-((5-(3-(aminomethyl)phenyl)-2-methyl-2H-indazol-3-yl)methoxy)phenyl)acetic acid] it is less than 1 µM; for `NCc1cccc(-c2cc(CN3CCC3)c3occ(COc4ccccc4CC(=O)O)c3c2)c1` [Compound 207d, 2-(2-((5-(3-(aminomethyl)phenyl)-7-(azetidin-1-ylmethyl)benzofuran-3-yl)methoxy)phenyl)acetic acid] it is less than 1 µM.
The figure for `CNc1cc(-c2cccc(CN)c2)cc2c(COc3cc(OC)ccc3CC(=O)O)coc12` [Compound 280c, 2-(2-((5-(3-(aminomethyl)phenyl)-7-(methylamino)benzofuran-3-yl)methoxy)-4-methoxyphenyl)acetic acid] is less than 1 µM.
